Results on two compounds are retold here after patent US20120322685A1, “DEVICE FOR COLLECTING AND ANALYZING MIGRATORY TUMOR CELLS” (priority 2010, published 2012).

Assay [1] has as its system Human lung tumors heterotransplanted into nude mice. Kind of assay: in vivo invasion assay, chemotaxis-based cell collection into needles, human lung tumor heterotransplants. As to conditions: needles containing 50 nM Heregulin; first mouse to mouse transplant. The source says:
Therefore, an in vivo invasion assay was created in which three needles (microneedles ˜100 um in diameter) containing matrigel and various growth factors are placed independently with microscopic precision, using a specially designed micromanipulator guided device, into the primary tumor for chemotaxis-based cell collection in vivo [3]. One needle contains control conditions (usually no ligand or an inhibitor), and the other two are identical. […] Fetal serum was also sufficient but this required signaling by the EGF receptor again implicating the EGF receptor. Furthermore, CSF-1 was also sufficient for cell collection. […] Migration and collection was directly correlated with macrophage density in the mammary gland, stage of progression to malignancy (only background levels of cells, <200 cells, were collected from normal mammary glands and adenoma stage tumors compared with carcinoma stage tumors, ˜1000 cells) and the presence of CSF1 in the tumor was required for cell collection as shown using mouse models with either decreased (op/op) or increased (tet on CSF-1) CSF-1 expression that regulates macrophage recruitment to the mammary gland and metastasis. […] Furthermore, the motility of tumor cells and intravasation occurs preferentially in association with macrophages. […]

The test system of assay [2] is MDA-MB-231 derived mammary tumors. In words: in vivo invasion assay, MDA-MB-231 derived mammary tumors. More on the design: species or system human tumor xenograft in SCID mice tumor xenograft in SCID mice. As to conditions: MDA-MB-231 tumors in mammary fat pads of SCID mice; FIG. 1C. The source says: Therefore, an in vivo invasion assay was created in which three needles (microneedles ˜100 um in diameter) containing matrigel and various growth factors are placed independently with microscopic precision, using a specially designed micromanipulator guided device, into the primary tumor for chemotaxis-based cell collection in vivo [3]. One needle contains control conditions (usually no ligand or an inhibitor), and the other two are identical. […] Fetal serum was also sufficient but this required signaling by the EGF receptor again implicating the EGF receptor. Furthermore, CSF-1 was also sufficient for cell collection. […]
Mammary tumors derived by injecting the human cell line MDA-MB-231 into a mammary fat pad of mice were used in the in vivo invasion assay. […] The involvement of EGF and CSF1 in carcinoma cell invasion has been analyzed from primary breast tumors derived from the injection of MDA-MB-231 cells into the mammary fat pads of SCID mice. […]

For Heregulin [reference compound], the “fold more cells collected in needles as compared to needles with buffer alone” value in assay [1] came to 2 fold. For the compound `COc1cc2ncnc(Nc3ccc(F)c(Cl)c3)c2cc1OCCCN1CCOCC1` [Iressa], in assay [2], the “CSF1-mediated collection of invasive cells (tumor cell and macrophage invasion)” value is “inhibited”; the “EGF-mediated collection of invasive cells (tumor cell and macrophage invasion)” value is given as “inhibited”.
